In brackets after ≈: the same amount, converted by molar mass.
Legend:
Test in all cases: ≥ marks a high value that may be exact or a test limit, other limits are often not marked, values filed in µg/mL are converted to µM
[1] = test system: Aspergillus flavus KCTC 1375
[2] = test system: Candida albicans ATCC 90028
[3] = test system: Enterococcus faecium ATCC 19434
Enterococcus faecium = test system: Enterococcus faecium
[4] = test system: Escherichia coli O157:H7 ATCC 43895
Escherichia coli = test system: Escherichia coli
[5] = test system: Malassezia furfur KCTC 7744
[6] = test system: Pseudomonas aeruginosa ATCC 27853
Pseudomonas aeruginosa = test system: Pseudomonas aeruginosa
[7] = test system: Staphylococcus aureus ATCC 25923
Staphylococcus aureus = test system: Staphylococcus aureus
Aspergillus fumigatus = test system: Aspergillus fumigatus
[8] = test system: Escherichia coli ATCC 25922
[9] = test system: Staphylococcus aureus ATCC 49230
[10] = test system: Staphylococcus epidermidis ATCC 35984
[11] = test system: Acinetobacter baumannii NM8
[12] = test system: Escherichia coli ATCC 25726
[13] = test system: Klebsiella pneumoniae ATCC 700603
[14] = test system: Staphylococcus epidermidis RP62A/1
[15] = test system: Staphylococcus epidermidis RP62A
[16] = test system: Stenotrophomonas maltophilia B32/4
[17] = test system: Bacillus subtilis IFO 3513
[18] = test system: Escherichia coli IFO 12734
[19] = test system: Staphylococcus aureus IFO 12732
[20] = test system: Staphylococcus aureus ATCC 29313
[21] = test system: Xanthomonas axonopodis pv. citri

Q: Which MIC [1] does the source give for `CC(C)C[C@H](NC(=O)[C@H](Cc1ccc(O)cc1)NC(=O)[C@H](Cc1cnc[nH]1)NC(=O)[C@@H](NC(=O)[C@H](CC(C)C)NC(=O)[C@H](C)NC(=O)[C@H](C)NC(=O)[C@H](CCCCN)NC(=O)CNC(=O)[C@@H](NC(=O)[C@H](Cc1cnc[nH]1)NC(=O)[C@H](CCCCN)NC(=O)CNC(=O)[C@@H](NC(=O)[C@H](Cc1cnc[nH]1)NC(=O)[C@H](C)NC(=O)[C@H](C)NC(=O)[C@H](CCCCN)NC(=O)[C@@H](N)CCCCN)C(C)C)C(C)C)[C@@H](C)O)C(N)=O` [KKAAHVGKHVGKAALTHYL] here?
A: ≥ 40 µM

Q: What about the MIC [2] of the same molecule?
A: ≥ 40 µM

Q: And the MIC [3]?
A: ≥ 40 µM

Q: What about the MIC (Enterococcus faecium) of the same molecule?
A: ≥ 40 µM

Q: What about the MIC [4] of the same molecule?
A: 28.3 µM (≈ 57.4 µg/mL)

Q: What about the MIC (Escherichia coli) of the same molecule?
A: 28.3 µM (≈ 57.4 µg/mL)

Q: And the MIC [5]?
A: ≥ 56.6 µM

Q: What about the MIC [6] of the same molecule?
A: 40 µM (≈ 81.1 µg/mL)

Q: What about the MIC (Pseudomonas aeruginosa) of the same molecule?
A: 40 µM (≈ 81.1 µg/mL)

Q: And the MIC [7]?
A: 28.3 µM (≈ 57.4 µg/mL)

Q: And the MIC (Staphylococcus aureus)?
A: 28.3 µM (≈ 57.4 µg/mL)

Q: Which results are given for `CC(C)C[C@H](NC(=O)[C@H](CC(C)C)NC(=O)[C@H](Cc1ccccc1)NC(=O)[C@H](CC(C)C)NC(=O)[C@H](CC(C)C)NC(=O)[C@@H](N)CC(C)C)C(=O)N[C@@H](CCCCN)C(=O)N[C@@H](CCCCN)C(=O)N[C@@H](CCCN=C(N)N)C(=O)N[C@@H](CCCCN)C(=O)N[C@@H](CCCCN)C(=O)N[C@@H](CCCN=C(N)N)C(=O)N[C@@H](CCCCN)C(=O)N[C@@H](Cc1ccc(O)cc1)C(=O)O` [LLLFLLKKRKKRKY]?
A: MIC (Aspergillus fumigatus): 3.6 µM (≈ 6.65 µg/mL); MIC [8]: 8.66 µM (≈ 16 µg/mL); MIC [6]: 2.17 µM (≈ 4 µg/mL); MIC [9]: 2.17 µM (≈ 4 µg/mL); MIC [10]: 1.08 µM (≈ 2 µg/mL)

Q: `CC[C@H](C)[C@H](N)C(=O)N[C@@H](CC(C)C)C(=O)NCC(=O)N[C@@H](CCCCN)C(=O)N[C@@H](CC(C)C)C(=O)N[C@@H](CC(C)C)C(=O)N[C@@H](CCCCN)C(=O)N[C@H](C(=O)N[C@@H](C)C(=O)N[C@@H](C)C(=O)N[C@@H](CCCCN)C(=O)N[C@@H](CC(C)C)C(=O)N[C@@H](CC(C)C)C(=O)N[C@@H](CO)C(=O)N[C@@H](CC(N)=O)C(=O)N[C@@H](CC(C)C)C(N)=O)[C@@H](C)O` [ILGKLLKTAAKLLSNL] was tested. Which MIC [11] did it give?
A: 4 µM (≈ 6.78 µg/mL)

Q: What about the MIC [2] of the same molecule?
A: 8 µM (≈ 13.6 µg/mL)

Q: What about the MIC [12] of the same molecule?
A: 16 µM (≈ 27.1 µg/mL)

Q: And the MIC [13]?
A: 16 µM (≈ 27.1 µg/mL)

Q: What about the MIC [6] of the same molecule?
A: 8 µM (≈ 13.6 µg/mL)

Q: What about the MIC [7] of the same molecule?
A: 4 µM (≈ 6.78 µg/mL)

Q: What about the MIC [14] of the same molecule?
A: 2 µM (≈ 3.39 µg/mL)

Q: And the MIC [15]?
A: 2 µM (≈ 3.39 µg/mL)

Q: What about the MIC [16] of the same molecule?
A: 4 µM (≈ 6.78 µg/mL)

Q: What does the source list for `CC[C@H](C)[C@H](N)C(=O)N[C@@H](CC(C)C)C(=O)N1CCC[C@H]1C(=O)N[C@@H](Cc1c[nH]c2ccccc12)C(=O)N[C@@H](CCCCN)C(=O)N[C@@H](Cc1c[nH]c2ccccc12)C(=O)N1CCC[C@H]1C(=O)N[C@@H](Cc1c[nH]c2ccccc12)C(=O)N[C@@H](CC(C)C)C(=O)N1CCC[C@H]1C(=O)N[C@@H](Cc1c[nH]c2ccccc12)C(=O)N[C@@H](CCCN=C(N)N)C(=O)N[C@@H](CCCN=C(N)N)C(N)=O` [ILPWKWPWLPWRR]?
A: MIC [17]: 0.851 µM (≈ 1.56 µg/mL); MIC [18]: 6.81 µM (≈ 12.5 µg/mL); MIC [19]: 0.851 µM (≈ 1.56 µg/mL)

Q: What does the source list for `CC(C)C[C@H](NC(=O)[C@H](CO)NC(=O)[C@H](CCCCN)NC(=O)[C@H](CC(C)C)NC(=O)[C@H](CCCCN)NC(=O)[C@H](CC(=O)O)NC(=O)[C@H](CC(C)C)NC(=O)[C@H](Cc1c[nH]c2ccccc12)NC(=O)[C@H](C)N)C(=O)NCC(=O)N[C@@H](CCCCN)C(=O)N[C@H](C(=O)N[C@H](C(=O)NCC(=O)O)C(C)C)C(C)C` [AWLDKLKSLGKVVG]?
A: MIC [8]: 85 µM (≈ 129 µg/mL); MIC [6]: 170 µM (≈ 257 µg/mL); MIC [20]: ≥ 170 µM; MIC [21]: 5 µM (≈ 7.57 µg/mL)

— DBAASP
